Measurements reported in patent publication US7429658B2, “Synthesis of protected pyrrolobenzodiazepines” (Spirogen Limited, priority 2003, dated 2008).

Legend:
[1] = Photolytic deprotection of N-10 protected PBD (irradiation at 365 nM), monitored by reversed phase HPLC; assay type: physicochemical; conditions: 0.25 g in MeOH (10 mL) irradiated at 365 nM; HPLC at 1 h intervals against standard of parent PBD 30
Protocol: A solution of the N-10 protected PBD (0.25 g) in MeOH (10 mL was irradiated at 365 nM. The reaction was monitored by reversed phase HPLC (C18 column, 5 μM particle size, 250 mm×4.6 mm; mobile phase 70% H2O/30% CH3CN/0.1% TFA; detection at 245 nM) against a standard sample of the parent PBD 30. Aliquots of the reaction mixture (20 μL) were injected at 1 h intervals. The conversion to parent PBD was complete in 12 h.

[2] = target: T1, Carboxypeptidase G2 (CPG2) (Pseudomonas sp., UniProt P06621); test: Carboxypeptidase G2 (CPG2) cleavage of prodrug to parent PBD imine, monitored by reversed phase HPLC; assay type: biochemical; conditions: 100 μM prodrug, CPG2 (1 unit), 100 mM Tris-HCl pH 7.3, 260 μM ZnCl2, 37° C.
T1 sequence (P06621 23-415): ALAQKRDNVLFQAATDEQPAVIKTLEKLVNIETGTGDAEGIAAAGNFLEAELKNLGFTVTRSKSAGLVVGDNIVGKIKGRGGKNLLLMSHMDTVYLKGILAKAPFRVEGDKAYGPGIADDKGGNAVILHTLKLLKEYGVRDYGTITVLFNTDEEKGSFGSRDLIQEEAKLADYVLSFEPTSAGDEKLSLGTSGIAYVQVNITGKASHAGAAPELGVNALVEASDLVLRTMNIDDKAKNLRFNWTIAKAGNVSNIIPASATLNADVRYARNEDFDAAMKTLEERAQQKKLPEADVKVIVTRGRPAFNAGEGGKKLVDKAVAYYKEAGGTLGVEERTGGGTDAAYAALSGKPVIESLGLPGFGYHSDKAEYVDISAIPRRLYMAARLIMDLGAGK
Protocol: (§1) An aliquot of a 10 mM stock solution of the carbamate monomer prodrug was diluted to 100 μM in Carboxypeptidase G2 (CPG2) assay buffer (100 mM Tris-HCl, pH 7.3; 260 μM ZnCl2). CPG2 (1 unit) was added and the reaction was incubated at 37° C. The reaction was monitored by reversed phase HPLC (C18 column, 5 μM particle size, 250 mm×4.6 mm; mobile phase 70% H2O/30% CH3CN/0.1% TFA; detection at 245 nM) with 20 μL aliquots being injected at 0, 10, 20, 30, 40, 50 and 60 min. The conversion of the prodrug to the parent imine 30 was complete in 60 minutes.
as §1, with “carbamate dimer” for “carbamate monomer”, “0, 15,” for “0, 10, 20,”, “30, 45, 60” for “30, 40, 50”, “and 75” for “and 60”, “imine 61” for “imine 30”, “in 75 min.” for “in 60 minutes.”

With COc1cc(COC(=O)N2c3cc(OC)c(OC)cc3C(=O)N3CCC[C@H]3[C@@H]2O)c([N+](=O)[O-])cc1OC [Compound 28, (11S,11aS)-7,8-Dimethoxy-11-hydroxy-5-oxo-1,2,3,10,11,11a-hexahydro-5H-pyrrolo[2,1-c][1,4]benzodiazepine-10-carboxylic acid 4,5-dimethoxy-2-nitro-benzyl ester] the “conversion to parent PBD complete in” value [1] was at most 12 h.
With COc1cc2c(cc1OCCCCCOc1cc3c(cc1OC)C(=O)N1CCC[C@H]1[C@H](O)N3C(=O)OCc1ccc(OC(=O)N[C@@H](CCC(=O)O)C(=O)O)cc1)N(C(=O)OCc1ccc(OC(=O)N[C@@H](CCC(=O)O)C(=O)O)cc1)[C@@H](O)[C@@H]1CCCN1C2=O [Compound 68, 1,1′-[[Pentane-1,5-diyl]dioxy]bis[(11S,11aS)-10-[N-(4-(L-glutamylcarbonyloxy)benzyloxycarbonyl)]-11-hydroxy-7-methoxy-1,2,3,10,11,11a-hexahydro-5H-pyrrolo[2,1-c][1,4]benzodiazepine-5-one]] the “conversion of the prodrug to the parent imine 61 complete in” value ([2]; HPLC aliquots every 15 min to 75 min) was at most 75 min.
With COc1cc2c(cc1OC)N(C(=O)OCc1ccc(OC(=O)N[C@@H](CCC(=O)O)C(=O)O)cc1)[C@@H](O)[C@@H]1CCCN1C2=O [Compound 46, 2-[4-((11S,11aS)-7,8-Dimethoxy-11-hydroxy-5-oxo-1,2,3,10,11,11a-hexahydro-5H-pyrrolo[2,1-c][1,4]benzodiazepine-10-carbonyloxymethyl)-phenoxycarbonylamino]-pentanedioic acid] the “conversion of the prodrug to the parent imine 30 complete in” value ([2]; HPLC aliquots every 10 min to 60 min) was at most 60 min.
